Measured values from PubChem BioAssay (NCI).
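All cell lines were grown in 96-well plates and treated with compound for 48 hours. At the TGI there is no net growth.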

How the values were obtained:
Assay in all cases: DTP human tumour cell line panel, 48 h
UACC-257 melanoma = tested on: UACC-257 melanoma
DMS 273 small cell lung = tested on: DMS 273 small cell lung
SNB-78 CNS = tested on: SNB-78 CNS
KM20L2 colon = tested on: KM20L2 colon
DMS 114 small cell lung = tested on: DMS 114 small cell lung
SNB-75 CNS = tested on: SNB-75 CNS
SK-OV-3 ovarian = tested on: SK-OV-3 ovarian
SNB-19 CNS = tested on: SNB-19 CNS
DLD-1 colon = tested on: DLD-1 colon
OVCAR-4 ovarian = tested on: OVCAR-4 ovarian
K-562 leukemia = tested on: K-562 leukemia
XF 498 CNS = tested on: XF 498 CNS
M19-MEL melanoma = tested on: M19-MEL melanoma
UO-31 renal = tested on: UO-31 renal
LXFL 529 NSCLC = tested on: LXFL 529 NSCLC
NCI/ADR-RES ovarian = tested on: NCI/ADR-RES ovarian

| SMILES | TGI (UACC-257 melanoma) [µM] | TGI (DMS 273 small cell lung) [µM] | TGI (SNB-78 CNS) [µM] | TGI (KM20L2 colon) [µM] | TGI (DMS 114 small cell lung) [µM] | TGI (SNB-75 CNS) [µM] | TGI (SK-OV-3 ovarian) [µM] | TGI (SNB-19 CNS) [µM] | TGI (DLD-1 colon) [µM] | TGI (OVCAR-4 ovarian) [µM] | TGI (K-562 leukemia) [µM] | TGI (XF 498 CNS) [µM] | TGI (M19-MEL melanoma) [µM] | TGI (UO-31 renal) [µM] | TGI (LXFL 529 NSCLC) [µM] | TGI (NCI/ADR-RES ovarian) [µM] |
| --- | --- | --- | --- | --- | --- | --- | --- | --- | --- | --- | --- | --- | --- | --- | --- | --- |
| C/C=C/C=C/[C@H]1Cc2cc(O)cc(O)c2O1 | > 100 | > 100 | > 100 | > 100 | > 100 | > 100 | > 100 | > 100 | > 100 | > 100 | > 100 | > 100 | > 100 | > 100 | > 100 |  |
| CC1=NN(C(=O)c2ccc(Cl)cc2)C(=O)/C1=C/c1cccc(O)c1 | > 100 |  | > 100 | > 100 | > 100 |  | > 100 | > 100 | > 100 | > 100 | > 100 |  | > 100 | > 100 | > 100 |  |
| CCN(CC)CC(C)(C)C(=O)/C=C/c1ccc(C)cc1 |  |  | 26.3 | 13.3 |  | 23.5 | 60.6 | 25 | 32.4 | 24.4 | > 100 | 20.4 | 79.6 | 22.2 | 20.1 |  |
| CCCCCCCCCCCCCCCCCC(=O)NCCCNCCCNC(=O)CCCCCCCCCCCCCCCCC | > 100 | > 100 |  | > 100 | > 100 |  | > 100 | > 100 | > 100 | > 100 | > 100 |  | > 100 | > 100 | > 100 |  |
| C[n+]1c2ccccc2c(NC(CCC(N)=O)C(=O)O)c2ccccc21 (centres undefined) | > 100 | > 100 | > 100 | > 100 | > 100 | > 100 | > 100 | > 100 | > 100 | > 100 | > 100 | > 100 | > 100 | > 100 | > 100 |  |
| Cc1[nH]n(-c2ccccc2)c(=S)c1C(=O)c1ccccc1 | > 100 | > 100 | 64.8 | > 100 | 99.1 | > 100 | > 100 | > 100 | 60.9 | > 100 | > 100 | > 100 |  | > 100 | 37.2 |  |
| Cc1ccc2c(c1)NC(=O)C(N=[N+]=[N-])(c1ccccc1)C2=O (centres undefined) | 79.7 | 28.6 | 64.3 | 74.6 | 81.1 | > 100 | 84.3 | 98.1 | > 100 | > 100 | 56.6 | 60.2 | 40 | 90.7 | 66.1 |  |
| CCC12C=CCN3CC[C@]4(C(=C(C(=O)OC)[C@@H]1Nc1ccn(C5OC(COC(C)=O)C(OC(C)=O)C5OC(C)=O)c(=O)n1)Nc1ccccc14)C32 (some centres undefined) | 3.62 | 8.54 | 13.8 | 8.19 |  | 7.63 | 9.45 | 9.27 | 9.14 | 3.57 | 17.1 | 9.63 | 7.45 | 7.64 | 8.94 |  |
| CCOc1ccc(N=Cc2cc(OC)c(OC)c(OC)c2)cc1 | > 100 | > 100 | > 100 | > 100 | > 100 | > 100 | > 100 | > 100 | > 100 | > 100 | > 100 | > 100 | > 100 | > 100 | > 100 |  |
| Cc1ccc(N2C(=O)/C(=c3\s/c(=C(/N)O)c(=N)n3-c3ccccc3)SC2=S)cc1 | > 100 |  |  |  |  | 28 | > 100 | > 100 | > 100 |  | > 100 |  | > 100 | > 100 | > 100 |  |
| C(/COc1cccnc1)=N\NC1=NCCN1 | > 100 | > 100 | > 100 | > 100 | > 100 | > 100 | > 100 | > 100 | > 100 | > 100 | > 100 | > 100 | > 100 | > 100 | > 100 |  |
| CC1=CCC2(C#N)CCC1C2=O (centres undefined) | > 100 |  | > 100 | > 100 | > 100 |  | > 100 | > 100 | > 100 | > 100 | > 100 | > 100 | > 100 | > 100 | > 100 |  |
| CC(C)(C)C1CCC2c3c([nH]c4ccccc34)C3C(=O)N(c4ccc(Br)cc4)C(=O)C3C2C1 (centres undefined) | 50.2 | 31.9 | > 100 | 42.2 | 41.6 | 54.8 |  | 40 | > 100 | 41.5 | 43.5 | 76.2 | 33.2 | 27.2 | 48.1 |  |
| CC(C)(C)SC1=CCC[C@@H](P(=O)(c2ccccc2)c2ccccc2)[C@@H]2CCC[C@@H]12 | 31.8 |  |  |  |  | 26.5 | 33.8 | 30.9 |  | 31.4 | 51.6 |  |  | 30.2 |  | 35.1 |
| CS(=O)(=O)C(=Cc1ccccc1Cl)S(C)(=O)=O | > 100 |  |  |  |  | > 100 | > 100 | > 100 |  | > 100 | > 100 |  |  | > 100 |  | > 100 |
| Cc1ccc(S(=O)(=O)n2ccn3c(=O)cc(C)nc23)cc1 | > 10 |  |  |  |  | > 10 | > 10 | > 10 |  | > 10 | > 10 |  |  | > 10 |  | > 10 |
| c1ccc2cc3n[se]nc3cc2c1 | > 100 | > 100 | > 100 | > 100 | > 100 | > 100 | > 100 | > 100 | > 100 | > 100 | > 100 |  |  | > 100 | > 100 |  |
| Cn1ncc2c(NCCc3ccccc3)nc(Cl)nc21 | 12.3 |  |  |  |  | 76.1 | 71.7 | > 100 |  | 57.7 | > 100 |  |  | 73 |  | 59.9 |
| COc1cc(OC)c(/C=N/N=C(\N)NO)c(OC)c1 | > 100 |  |  |  |  | 64.7 | > 100 | > 100 |  | > 100 | > 100 |  |  | 81.2 |  | > 100 |
| CCC(=S)N(C)O | > 100 |  | > 100 | > 100 | 5.82 | > 95.4 | > 100 | > 100 | > 100 | > 100 | > 79.8 | 29.8 | > 51.7 | 68.9 | > 100 | > 100 |
| CCC(C)(C)NC1=C(NC(C)=O)C(=O)c2ccccc2C1=O | 70.7 | > 75 | > 75 | > 75 |  | > 75 | > 75 | > 75 | > 75 | > 75 | 53.4 | 40.2 | 23.7 | > 75 | > 75 |  |
| CC(C)NC(C)Cc1ccccc1 (centres undefined) | > 100 | > 100 | > 100 | > 100 | > 100 | > 100 | > 100 | > 100 | > 100 | > 100 | > 100 |  | > 100 | > 100 | > 100 |  |
| COC(=O)C(Cc1ccccc1)NS(=O)(=O)c1ccc(-c2c3nc(c(-c4ccc(S(=O)(=O)NC(Cc5ccccc5)C(=O)OC)cc4)c4ccc([nH]4)c(-c4ccc(S(=O)(=O)NC(Cc5ccccc5)C(=O)OC)cc4)c4nc(c(-c5ccc(S(=O)(=O)NC(Cc6ccccc6)C(=O)OC)cc5)c5ccc2[nH]5)C=C4)C=C3)cc1 (centres undefined) | > 100 |  |  |  |  | 31.5 | > 100 | > 100 |  | > 100 | > 100 |  |  | > 100 |  | > 100 |
